Experimental data taken from article PMC7093416, “Selective USP7 inhibition elicits cancer cell killing through a p53-dependent mechanism” (Scientific Reports, 2020).
Where two headings read alike, the source gives them in different places. Each block holds one compound with its values, some of them ahead of it.

Experiments:
[1] = test system: Ewing Sarcoma, AML, multiple myeloma and rhabdoid cell lines; assay: Cell viability (CellTiter-Glo) in individual cell line panels; format: cell-based; details: Ewing Sarcoma lines and TC32 cells, 3 days
Description: (§1) Cells were plated in 384-well culture-treated plates and allowed to settle overnight. After drug treament and appropriate incubation time, cell viability was assessed using the CellTiter-Glo Luminescent Cell Viability Assay (Promega). Luminescence was read on a Fluostar Omega Reader (BMG Labtech).

TC32 cells = assay: Cell viability (CellTiter-Glo) in TC32 cells expressing sgRNA (TP53-KO vs control); format: cell-based; details: 3 days, Cell Titer Glo
Description: as §1

full-length USP7 [2] = molecular target: T1, full-length USP7 (Homo sapiens, UniProt Q93009); assay: Ub-AMC enzymatic assay, full-length USP7, 6 h pre-incubation; format: biochemical; details: for IC50: Ub-AMC, read-out: IC50
T1 construct: The constructs encoding USP7 full length (amino acids 1–1102) and catalytic domain (208–560); inferred from Ni-NTA purification; made in house; host or cells: E. coli BL21 (DE3)
Description: Full length USP7 was tested for its activity in Ubiquitin-AMC assay in presence or absence of inhibitors. USP7 (5 nM) was pre-incubated for 6 hours at room temperature with different concentrations of inhibitors or DMSO as a control in 50 mM HEPES pH 7.5, 0.5 mM EDTA, 11 uM ovalbumin, and 5 mM DTT. Ubiquitin-AMC (Boston Biochem) was then added to a final concentration of 500 nM. The initial rate of the reaction was measured by collecting fluorescence data at one minute intervals over 30-minute period using a Clariostar fluorescence plate reader at excitation and emission wavelength of 345 and 445 nm respectively. The calculated initial rate values were plotted against inhibitor concentrations to determine IC50s. All the experimental data were plotted using Prism GraphPad. All assays for each compound were performed at least twice for each compound.

full-length USP7 [3] = molecular target: T1, full-length USP7; assay: Ub-AMC time course assay for kinact / KI; format: biochemical
Description: To calculate the ki and kianct values for XL-9678-041, the procedure above was used, but different concentrations of inhibitor were incubated with USP7 for different time points (5 min - 3 hours) before adding Ubiquitin-AMC. To determine kobs, the time course curves were fit to the equation y = ymax(1 − exp(−kobs⋅x)). The kobs values were then plotted against the inhibitor concentrations and fit to the equation y = kinact/(1 + (ki/x)) to obtain the values for ki and kianct.
Supplementary Figure Captions
Figure S1: Full-length recombinant purified USP7 was pre-incubated with XL041 at the indicated concentrations for the indicated times, then Ub-AMC was added and fluorescence was monitored. Graphpad Prism software was used to calculate initial reaction velocity and derive KI / kinact values (bottom panel).
Figure S2: Mass spectra (left) and zero-charge mass spectra (right) of WT USP7 catalytic domain incubated for 4 hours with DMSO (top) or 2.5-fold molar excess XL058 (bottom). […]
Figure S5: MCF7 cells were transfected with the indicated pcDNA constructs for 48 hours, then treated with XL177A at the indicated concentration for 3 hours. Cells were lysed, and FLAG-USP7 target engagement was assessed with the DUB ABP HA-Ub-VS. Densitometry was performed using ImageStudio software and analyzed using Graphpad Prism. […]

USP7 catalytic domain = molecular target: T2, USP7 catalytic domain (Homo sapiens, UniProt Q93009); assay: Intact MS / CE-MS labeling of purified USP7 catalytic domain; format: binding; details: 2.5-fold molar excess compound
T2 construct: catalytic domain (208–560) used were cloned as described; inferred from Ni-NTA purification; made in house; host or cells: E. coli BL21 (DE3)
Description: Purified USP7 catalytic domain was diluted to 20 μM in 10 μL labeling buffer (20 mM HEPES pH 7.5, 150 mM NaCl, 1 mM TCEP) and incubated for the indicated times with 50 μM (2.5×) compound. After incubation, samples were flash frozen in liquid nitrogen and stored at −80 °C until analysis.
Intact mass analysis was performed by injecting 5 µg USP7 catalytic domain onto a self-packed reversed phase column (1/32” O.D. × 500 um I.D., 5 cm of POROS 10R2 resin). After desalting, protein was eluted with an HPLC gradient (0–100% B in 4 minutes, A = 0.2 M acetic acid in water, B = 0.2 M acetic acid in acetonitrile, flow rate ~30 µL/min) into an LTQ ion trap mass spectrometer (ThermoFisher Scientific, San Jose, CA). Mass spectra were processed using MagTran1.03b2[52].
Peptides were desalted using SP3[53], dried by vacuum centrifugation, and reconstituted in 1% formic acid/50% acetonitrile with 100 mM ammonium acetate. Peptides were then analyzed by CE-MS using a ZipChip CE system and autosampler (908 Devices, Boston, MA) interfaced to a QExactive HF mass spectrometer (ThermoFisher Scientific, San Jose, CA). Peptide solution was loaded for 30 seconds, and the mass spectrometer was operated in data dependent mode and subjected the 5 most abundant ions in each MS scan (60k resolution, 3E6 target, lock mass enabled) to MS/MS (15k resolution, 1E5 target, 100 ms max inject time). […]

MCF7 cells = assay: 3' DGE RNA-seq transcriptional profiling; format: cell-based; design: log2FoldChange: concentration or dose not given beside the values; details: gene ABCA12; concentration 1
Description: The DGE RNA sequencing was performed following the published method[39],[40] with modifications as described below. MCF7 cells were seeded in a 384 well plate at 2500 cells per well, allowed to adhere for 24 hours, then treated with two doses in triplicate of XL177A, XL177B, Nutlin-3, or DMSO. After 24 hours of treatment, an EL405x plate washer (BioTek) was used to aspirate the media and wash once with PBS. Cells were lysed in the plate with 10 µl of lysis buffer (1x Qiagen TCL, 1% BME) for 5 minutes at room temperature, then stored at −80 °C. Automated liquid handling was performed with assistance from ICCB-Longwood Screening Facility. A BRAVO Automated Liquid Handling Platform (Agilent) was used for RNA extraction as follows. The lysate was mixed and 10 µl was transferred to a 384 well PCR plate. 28 µl of homemade SPRI[66] (solid-phase reversible immobilization) beads were added to the lysate and mixed. After 5 minutes, the beads were pulled down by placing the plate on a magnet, then the beads were washed twice with 80% ethanol. Beads were air dried for 1 minute, then 20 µl of nuclease free water was added, the plate was removed from the magnet, and the beads were resuspended. After 5 minutes, the plate was placed back on the magnet to pull down the beads. The supernatant was transferred to a fresh 384 well plate. RNA quantity was checked with the Qubit Fluorometer and RNA quality was assessed using the Agilent BioAnalyzer RNA 6000 Pico Kit. The BRAVO platform was again used to transfer 5 µl of supernatant was transferred to a fresh 384 well plate with RT master mix and 1 µl of barcoded E3V6NEXT adapters for reverse transcription and template switching. The plate was incubated for 90 minutes at 42 °C, then cDNA was pooled, purified with the QIAquick PCR purification kit. The full-length cDNA was treated with Exonuclease I to remove excess primers for 30 minutes at 37 °C then amplified x5 cycles with Advantage 2 PCR Enzyme System using the SINGV6 primer. The amplified full-length cDNA was purified with Agencourt AMPure XP magnetic beads and quantitated by Qubit Fluorometer. The sequencing library was prepared using the Nextera DNA kit following the manufacturer’s instructions. Briefly, 55 ng of cDNA was tagmented for 5 minutes at 55 °C then purified using Zymo DNA Clean & Concetrator-5 column, then amplified x7 cycles and purified using a 0.9x ratio of AMPure XP magnetic beads. The library size distribution was assessed by Agilent BioAnalyzer HS DNA Kit before it was quantified by qPCR and sequenced on an Illumina NextSeq at the Biopolymers Facility at Harvard Medical School.
The bcbio-nextgen single cell RNA-seq analysis pipeline (https://bcbio-nextgen.readthedocs.io/en/latest/) was used to deconvolve the well barcodes and convert reads to counts. Any detected barcode that differed by more than one base from an expected barcode was removed. Unique reads were identified using unique molecular identifiers (UMIs) in order to remove PCR duplicates. The reads remaining after these filters were aligned to the transcriptome (GRCh38) using RapMap[67]. The R package DESeq. 2 version 1.20.0 (R version 3.5.1) was used for differential expression analysis.

T1 sequence (Q93009 whole entry, the tested form may be a part): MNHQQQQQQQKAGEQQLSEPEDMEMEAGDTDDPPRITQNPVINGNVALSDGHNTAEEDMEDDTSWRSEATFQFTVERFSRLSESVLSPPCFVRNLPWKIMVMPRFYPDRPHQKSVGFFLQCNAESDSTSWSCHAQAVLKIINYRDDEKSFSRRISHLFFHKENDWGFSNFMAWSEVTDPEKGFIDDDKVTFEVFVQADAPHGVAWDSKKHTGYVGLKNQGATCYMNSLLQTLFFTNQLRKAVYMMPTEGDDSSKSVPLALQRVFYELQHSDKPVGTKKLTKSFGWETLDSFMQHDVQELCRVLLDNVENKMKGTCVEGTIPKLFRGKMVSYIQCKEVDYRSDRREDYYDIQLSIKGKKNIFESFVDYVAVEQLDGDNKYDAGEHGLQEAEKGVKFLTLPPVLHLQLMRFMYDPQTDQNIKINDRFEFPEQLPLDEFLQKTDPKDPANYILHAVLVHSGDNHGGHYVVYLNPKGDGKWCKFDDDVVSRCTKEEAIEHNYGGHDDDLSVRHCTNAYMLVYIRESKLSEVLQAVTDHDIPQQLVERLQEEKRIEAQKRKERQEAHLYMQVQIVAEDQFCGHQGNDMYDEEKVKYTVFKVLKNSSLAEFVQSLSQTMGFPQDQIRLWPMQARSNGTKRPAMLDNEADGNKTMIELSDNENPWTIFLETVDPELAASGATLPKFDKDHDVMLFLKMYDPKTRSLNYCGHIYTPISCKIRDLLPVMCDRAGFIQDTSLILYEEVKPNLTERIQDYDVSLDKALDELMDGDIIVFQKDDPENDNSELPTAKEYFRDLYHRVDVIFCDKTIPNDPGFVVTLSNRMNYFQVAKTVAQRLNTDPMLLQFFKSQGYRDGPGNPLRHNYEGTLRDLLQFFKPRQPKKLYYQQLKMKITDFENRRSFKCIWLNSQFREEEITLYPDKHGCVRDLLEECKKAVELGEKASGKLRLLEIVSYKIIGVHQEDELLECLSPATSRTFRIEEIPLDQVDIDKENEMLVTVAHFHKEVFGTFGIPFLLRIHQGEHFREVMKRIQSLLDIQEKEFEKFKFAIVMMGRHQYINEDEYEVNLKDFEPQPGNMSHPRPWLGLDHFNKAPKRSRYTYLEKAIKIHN
T2 sequence (Q93009 208-560): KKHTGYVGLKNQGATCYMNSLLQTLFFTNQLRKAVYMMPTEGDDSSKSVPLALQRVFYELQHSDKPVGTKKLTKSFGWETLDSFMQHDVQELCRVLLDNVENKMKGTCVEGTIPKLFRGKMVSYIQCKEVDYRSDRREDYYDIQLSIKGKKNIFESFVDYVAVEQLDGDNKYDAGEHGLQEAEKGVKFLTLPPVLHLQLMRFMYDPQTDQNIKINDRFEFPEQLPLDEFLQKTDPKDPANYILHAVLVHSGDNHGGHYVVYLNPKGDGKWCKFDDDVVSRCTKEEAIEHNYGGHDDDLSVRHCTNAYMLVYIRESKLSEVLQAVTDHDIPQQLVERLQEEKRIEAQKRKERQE

SMILES: CCc1c(-c2ccc3[nH]ncc3c2)cnc(N)c1-c1ccc(O)cc1 [GNE-6640]
selectivity for TP53-WT versus TP53-mutant or TP53-KO cells [1]: showed little selectivity
selectivity for TP53-WT versus TP53-mutant or TP53-KO cells ([1]; listed as SB1_F_057): no differential response
differential response in TC32 TP53 knock out cells (TC32 cells): no differential

SMILES: CN1CCN(CCC(=O)Nc2ccc3c(=O)n(CC4CCN(C(=O)C(CCCNC(=O)c5ccc6c(Cl)c7c(nc6c5)CCCC7)Cc5ccccc5)CC4)cnc3c2)CC1 (centres unmarked) [XL024]
less potent than XL058 (full-length USP7 [2]): ~ 10 fold
less potent than XL112 (full-length USP7 [2]): ~ 1,000 fold
IC50 (full-length USP7 [2]; Table S1): 8130 nM
IC50 (full-length USP7 [2]): 8000 nM

SMILES: CN1CCN(CCC(=O)Nc2ccc3c(=O)n(CC4(O)CCN(C(=O)CCCCNC(=O)c5ccc6c(Cl)c7c(nc6c5)CCCC7)CC4)cnc3c2)CC1 [XL041]
mode of inhibition (full-length USP7 [3]): irreversible mode of inhibition
kinact (full-length USP7 [3]; pre-incubation 5 min - 3 hours): 0.00373 s⁻¹
IC50 (full-length USP7 [2]; Table S1): 152 nM

SMILES: COc1ccc(C2=N[C@@H](c3ccc(Cl)cc3)[C@@H](c3ccc(Cl)cc3)N2C(=O)N2CCNC(=O)C2)c(OC(C)C)c1 [nutlin3a]
log2FoldChange (MCF7 cells): 0.9473

Next, values leading:

labeling of USP7 catalytic domain by MS (USP7 catalytic domain): unable to label
IC50 (full-length USP7 [2]): 904 nM
SMILES: CN1CCN(CCC(=O)Nc2ccc3c(=O)n(CC4(O)CCN(C(=O)C(CCCNC(=O)c5ccc6cc7c(nc6c5)CCCC7)Cc5ccccc5)CC4)cnc3c2)CC1 (centres unmarked) [XL058]

IC50 (full-length USP7 [2]): 5.9 nM
SMILES: CN1CCN(CCC(=O)Nc2ccc3c(=O)n(CC4(O)CCN(C(=O)C(CCCNC(=O)c5ccc6c(Cl)c7c(nc6c5)CCCC7)Cc5ccccc5)CC4)cnc3c2)CC1 (centres unmarked) [XL112]
